Measurements: US20210221866A1, “PROTEASE-RESISTANT LIPIDATED GLP-1 ANALOGS” (MEDIMMUNE LIMITED, priority 2015, published 2021)
Read-outs that look alike come from different tables or passages of the source. Values belong to the compound of their own block, whether it stands above or below them. Numbered stars: 1 amine (or outer) side, 2 acyl side, 3 side chain; on linkers, the order of the positions; unused ones are H or OH. Square brackets hold non-standard residues; d marks the D form. Side chains are listed from the residue outwards. Peptide text beside a SMILES is read from it. * marks the point of attachment. C18 diacid = O=C(O)CCCCCCCCCCCCCCCCC(=O)*; γGlu = O=C(O)[C@H](CCC(=O)[*:2])N[*:1]; αMeF = C[C@](N)(Cc1ccccc1)C(=O)O; αMeK = C[C@](N)(CCCCN)C(=O)O; Lauroyl = CCCCCCCCCCCC(=O)*; αMeS = C[C@](N)(CO)C(=O)O; AEEA = NCCOCCOCC(=O)O; Aib = CC(C)(N)C(=O)O

Key:
Assay type in all cases: cell-based
GLP-1R (INS1e cells) = target: T1, GLP-1R (INS1e cells) (Rattus norvegicus, UniProt P32301); assay: INS1e assay, cAMP activity at GLP-1R
T1 construct: endogenous in cells; host or cells: INS1e cells
T1 sequence (P32301 22-463): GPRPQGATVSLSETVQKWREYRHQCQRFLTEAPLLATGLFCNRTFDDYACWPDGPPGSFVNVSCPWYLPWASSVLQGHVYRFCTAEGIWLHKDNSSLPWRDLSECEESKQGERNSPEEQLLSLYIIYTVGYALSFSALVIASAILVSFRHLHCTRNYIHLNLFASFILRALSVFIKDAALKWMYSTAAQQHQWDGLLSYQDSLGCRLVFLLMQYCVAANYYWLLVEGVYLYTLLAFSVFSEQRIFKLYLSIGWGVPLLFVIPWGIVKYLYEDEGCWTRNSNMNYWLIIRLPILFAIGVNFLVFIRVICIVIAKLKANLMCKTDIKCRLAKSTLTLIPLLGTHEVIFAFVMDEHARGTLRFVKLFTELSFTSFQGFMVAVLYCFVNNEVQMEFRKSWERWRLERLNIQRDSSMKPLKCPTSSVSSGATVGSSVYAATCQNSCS

[1] = target: T2, human glucagon receptor (GCGR) (Homo sapiens, UniProt P47871); assay: cAMP assay, human GCGR cells
T2 construct: expressed in transfected cells; host or cells: HEK293 cells or CHO cells
Summary of the method: (§1)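 Peptide-stimulated cAMP measured by two-step HTRF after a 30 min room-temperature incubation with receptor-expressing cells (hGLP-1R, hGIPR at 1×10^5 cells/ml; hGCGR at 2×10^5 cells/ml). Duplicate dilutions; EC50 from 4-parameter logistic fit of % Delta F.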

[2] = target: T3, human glucose-dependent insulinotropic peptide receptor (GIPR) (Homo sapiens, UniProt P48546); assay: cAMP assay, human GIPR cells
T3 construct: expressed in transfected cells; host or cells: HEK293 cells or CHO cells
T3 sequence (P48546 22-466): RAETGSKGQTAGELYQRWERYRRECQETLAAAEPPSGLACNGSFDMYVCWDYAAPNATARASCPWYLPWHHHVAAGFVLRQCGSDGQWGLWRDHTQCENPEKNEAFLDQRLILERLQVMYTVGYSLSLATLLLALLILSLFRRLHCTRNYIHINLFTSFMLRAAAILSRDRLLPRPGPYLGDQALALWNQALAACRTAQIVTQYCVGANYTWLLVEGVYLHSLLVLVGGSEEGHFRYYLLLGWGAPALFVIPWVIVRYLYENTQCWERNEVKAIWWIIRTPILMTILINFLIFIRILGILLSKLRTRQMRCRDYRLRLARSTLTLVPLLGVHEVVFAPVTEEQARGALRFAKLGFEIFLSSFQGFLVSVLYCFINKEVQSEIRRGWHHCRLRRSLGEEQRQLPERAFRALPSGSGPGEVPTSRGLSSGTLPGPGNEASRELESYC
Summary of the method: as §1

[3] = target: T4, human GLP-1 receptor (GLP-1R) (Homo sapiens, UniProt P43220); assay: cAMP assay, human GLP-1R cells
T4 construct: expressed in transfected cells; host or cells: HEK293 cells or CHO cells
Summary of the method: as §1

[4] = Table 8, substituted and mono-lipidated peptides, mean of n1 and n2, read-out: INS1e assay EC50 Mean pM GLP-1R
[5] = Table 8, substituted and mono-lipidated peptides, replicate n1, read-out: INS1e assay EC50 GLP-1R n1
[6] = Table 8, substituted and mono-lipidated peptides, replicate n2, read-out: INS1e assay EC50 GLP-1R n2

T4 sequence (P43220 24-463): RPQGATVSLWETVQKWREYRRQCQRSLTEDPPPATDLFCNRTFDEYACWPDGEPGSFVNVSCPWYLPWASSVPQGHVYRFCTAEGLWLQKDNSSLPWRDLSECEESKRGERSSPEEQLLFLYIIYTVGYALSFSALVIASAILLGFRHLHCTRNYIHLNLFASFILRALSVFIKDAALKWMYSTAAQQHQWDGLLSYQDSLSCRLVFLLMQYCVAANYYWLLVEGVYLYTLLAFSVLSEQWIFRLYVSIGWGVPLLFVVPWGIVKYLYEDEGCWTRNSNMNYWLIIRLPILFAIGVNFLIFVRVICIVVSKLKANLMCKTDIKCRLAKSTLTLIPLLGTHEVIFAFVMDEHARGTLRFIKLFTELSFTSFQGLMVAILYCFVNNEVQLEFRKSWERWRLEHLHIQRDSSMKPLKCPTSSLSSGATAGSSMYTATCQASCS
T2 sequence (P47871 26-477): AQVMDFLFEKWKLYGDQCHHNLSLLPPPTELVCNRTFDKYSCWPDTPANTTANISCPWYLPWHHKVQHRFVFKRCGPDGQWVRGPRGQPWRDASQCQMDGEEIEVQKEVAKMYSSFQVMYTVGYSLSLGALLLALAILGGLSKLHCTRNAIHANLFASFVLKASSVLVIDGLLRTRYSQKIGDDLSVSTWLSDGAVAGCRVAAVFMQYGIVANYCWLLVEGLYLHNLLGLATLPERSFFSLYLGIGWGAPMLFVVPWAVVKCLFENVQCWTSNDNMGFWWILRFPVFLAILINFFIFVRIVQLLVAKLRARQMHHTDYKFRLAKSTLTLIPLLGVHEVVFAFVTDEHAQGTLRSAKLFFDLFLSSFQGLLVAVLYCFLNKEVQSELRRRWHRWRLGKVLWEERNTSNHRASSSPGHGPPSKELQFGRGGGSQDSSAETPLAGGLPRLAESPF

EC50 (GLP-1R (INS1e cells); [4]): 1460 pM
EC50 (GLP-1R (INS1e cells); [5]): 787 pM
EC50 (GLP-1R (INS1e cells); [6]): 2130 pM
EC50 ([1]; second replicate (n2), read-out: Primary assay EC50 Gluc-R): ≥ 25 nM
EC50 ([2]; first replicate, read-out: Primary assay EC50 GIP-R): ≥ 25 nM
EC50 ([2]; second replicate (n2), read-out: Primary assay EC50 GIP-R): ≥ 25 nM
EC50 ([3]; mean of n1 and n2, read-out: Mean pM GLP-1R): 18.3 pM
EC50 ([3]; replicate n1, read-out: Primary assay EC50 GLP-1R n1): 29 pM
EC50 ([3]; replicate n2, read-out: Primary assay EC50 GLP-1R n2): 7.5 pM
SMILES: CC[C@H](C)[C@H](NC(=O)[C@](C)(Cc1ccccc1)NC(=O)[C@H](CCC(=O)O)NC(=O)[C@](C)(CCCCN)NC(=O)[C@H](C)NC(=O)[C@H](C)NC(=O)[C@H](CCC(=O)O)NC(=O)CNC(=O)[C@H](CCC(=O)O)NC(=O)[C@H](CC(C)C)NC(=O)[C@](C)(Cc1ccccc1)NC(=O)[C@H](CO)NC(=O)[C@](C)(CO)NC(=O)[C@@H](NC(=O)[C@H](CC(=O)O)NC(=O)[C@H](CO)NC(=O)[C@@H](NC(=O)[C@](C)(Cc1ccccc1)NC(=O)[C@H](CO)NC(=O)CNC(=O)[C@H](CCC(=O)O)NC(=O)C(C)(C)NC(=O)[C@@H](N)Cc1c[nH]cn1)[C@@H](C)O)C(C)C)C(=O)N[C@@H](C)C(=O)N[C@@](C)(Cc1ccccc1)C(=O)N[C@H](C(=O)N[C@H](C(=O)N[C@@H](CCCCNC(=O)COCCOCCNC(=O)COCCOCCNC(=O)COCCOCCNC(=O)CCCCCCCCCCCCCCCCC(=O)O)C(=O)NCC(=O)NCC(N)=O)C(C)C)C(C)C [compound 199]

EC50 (GLP-1R (INS1e cells); Table 10, bis-lipidated peptides, mean of n1 and n2, read-out: INS1e assay EC50 Mean pM GLP-1R): 1160 pM
EC50 (GLP-1R (INS1e cells); Table 10, bis-lipidated peptides, replicate n1, read-out: INS1e assay EC50 GLP-1R n1): 1090 pM
EC50 (GLP-1R (INS1e cells); Table 10, bis-lipidated peptides, replicate n2, read-out: INS1e assay EC50 GLP-1R n2): 1230 pM
EC50 ([1]; Table 9, bis-lipidated peptides, first replicate, read-out: Primary assay EC50 Gluc-R (n1)): ≥ 22.2 nM
EC50 ([1]; Table 9, bis-lipidated peptides, second replicate, read-out: Primary assay EC50 Gluc-R (n2)): ≥ 22.2 nM
EC50 ([2]; Table 9, bis-lipidated peptides, first replicate, read-out: Primary assay EC50 GIP-R (n1)): ≥ 22.2 nM
EC50 ([2]; Table 9, bis-lipidated peptides, second replicate, read-out: Primary assay EC50 GIP-R (n2)): ≥ 22.2 nM
EC50 ([3]; Table 9, bis-lipidated peptides, mean of n1 and n2, read-out: Primary assay EC50 Mean pM GLP-1R): 4.8 pM
EC50 ([3]; Table 9, bis-lipidated peptides, replicate n1, read-out: Primary assay EC50 GLP-1R n1): 4.46 pM
EC50 ([3]; Table 9, bis-lipidated peptides, replicate n2, read-out: Primary assay EC50 GLP-1R n2): 5.05 pM
SMILES: CCCCCCCCCCCC(=O)N[C@@H](CCC(=O)NCCOCCOCC(=O)NCCOCCOCC(=O)NCCCC[C@H](NC(=O)[C@H](Cc1ccc(O)cc1)NC(=O)[C@H](CO)NC(=O)[C@](C)(CO)NC(=O)[C@@H](NC(=O)[C@H](CC(=O)O)NC(=O)[C@H](CO)NC(=O)[C@@H](NC(=O)[C@](C)(Cc1ccccc1)NC(=O)[C@H](CO)NC(=O)CNC(=O)[C@H](CCC(=O)O)NC(=O)C(C)(C)NC(=O)[C@@H](N)Cc1c[nH]cn1)[C@@H](C)O)C(C)C)C(=O)N[C@@H](CCC(=O)O)C(=O)NCC(=O)N[C@@H](CCC(=O)O)C(=O)N[C@@H](C)C(=O)N[C@@H](C)C(=O)N[C@@](C)(CCCCN)C(=O)N[C@@H](CCC(=O)O)C(=O)N[C@@H](Cc1ccccc1)C(=O)N[C@H](C(=O)N[C@@H](CCCCNC(=O)COCCOCCNC(=O)COCCOCCNC(=O)CC[C@H](NC(=O)CCCCCCCCCCC)C(=O)O)C(=O)N[C@@H](Cc1c[nH]c2ccccc12)C(=O)N[C@H](C(=O)N[C@H](C(=O)N[C@@H](CCC(=O)O)C(=O)NCC(=O)NCC(N)=O)C(C)C)C(C)C)[C@@H](C)CC)C(=O)O [compound 268] (H-H[Aib]EGS[αMeF]TSDV[αMeS]SYK([AEEA-AEEA-γGlu-Lauroyl])EGEAA[αMeK]EFIK([AEEA-AEEA-γGlu-Lauroyl])WVVEGG-NH2; N-terminus assumed)

EC50 (GLP-1R (INS1e cells); [4]): 544 pM
EC50 (GLP-1R (INS1e cells); [5]): 593 pM
EC50 (GLP-1R (INS1e cells); [6]): 494 pM
EC50 ([1]; cAMP activity, second determination (n2), read-out: Primary assay EC50 Gluc-R): ≥ 25.3 nM
EC50 ([2]; cAMP activity, first determination (n1), read-out: Primary assay EC50 GIP-R): ≥ 25 nM
EC50 ([2]; cAMP activity, second determination (n2), read-out: Primary assay EC50 GIP-R): ≥ 25.3 nM
EC50 ([3]; cAMP activity, first determination (n1), read-out: Primary assay EC50 GLP-1R n1): 6 pM
EC50 ([3]; cAMP activity, mean of n1 and n2, read-out: Mean pM GLP-1R): 6 pM
EC50 ([3]; cAMP activity, second determination (n2), read-out: Primary assay EC50 GLP-1R n2): 5.39 pM
SMILES: CC[C@H](C)[C@H](NC(=O)[C@](C)(Cc1ccccc1)NC(=O)[C@H](CCC(=O)O)NC(=O)[C@](C)(CCCCN)NC(=O)[C@H](C)NC(=O)[C@H](C)NC(=O)[C@H](CCC(=O)O)NC(=O)CNC(=O)[C@H](CCC(=O)O)NC(=O)[C@H](CCCCNC(=O)COCCOCCNC(=O)COCCOCCNC(=O)CC[C@H](NC(=O)CCCCCCCCCCCCCCCCC(=O)O)C(=O)O)NC(=O)[C@](C)(Cc1ccccc1)NC(=O)[C@H](CO)NC(=O)[C@](C)(CO)NC(=O)[C@@H](NC(=O)[C@H](CC(=O)O)NC(=O)[C@H](CO)NC(=O)[C@@H](NC(=O)[C@](C)(Cc1ccccc1)NC(=O)[C@H](CO)NC(=O)CNC(=O)[C@H](CCC(=O)O)NC(=O)C(C)(C)NC(=O)[C@@H](N)Cc1c[nH]cn1)[C@@H](C)O)C(C)C)C(=O)N[C@@H](C)C(=O)N[C@@](C)(Cc1ccccc1)C(=O)N[C@H](C(=O)N[C@H](C(=O)N[C@@](C)(CCCCN)C(=O)NCC(=O)NCC(N)=O)C(C)C)C(C)C [compound 115] (H-H[Aib]EGS[αMeF]TSDV[αMeS]S[αMeF]K([AEEA-AEEA-γGlu-C18 diacid])EGEAA[αMeK]E[αMeF]IA[αMeF]VV[αMeK]GG-NH2)
